# Assay results reported in patent US6344178B1, “Method for the preparation of facial metal tricarbonyl compounds and their use in the labelling of biologically active substrates” (Mallinckrodt Inc., priority 1997, dated 2002).
# System: coloncarcinoma cells HT29
# Assay: Kd on coloncarcinoma cells HT29
# Assay type: binding
# Procedure: 0.9 ml of [^99mTc(OH2)3(CO)3]^+ as prepared in example 1 is mixed with 0.1 ml of 10^−3M His-Neurotensin(8-13) (HRRPYIIL) and kept in a sealed tube at 75° C. for one hour. After this time the reaction mixture is cooled to room temperature. As evident from reversed phase column HPLC the yield is >95%. The Kd of this compound on coloncarcinoma cells HT29 is 1.0 nM.
sequence,measurement,value
"HRRPYIIL [His-Neurotensin(8-13), His-Neurotensin(8-13) (HRRPYIIL) labelled with [99mTc(OH2)3(CO)3]+]",Kd,1 nM
